# Experimental data published in patent US8722704B2, “Modulators of ATP-binding cassette-transporters” (Vertex Pharmaceuticals Incorporated, priority 2007, dated 2014).
# Molecular target: T1, ΔF508-CFTR (Homo sapiens, UniProt P13569, DEL508-508)
# T1 construct: expressed in transfected cells
# Assay: Assays for detecting and measuring ΔF508-CFTR correction properties (membrane potential optical assay; Table 3 does not say which assay)
# Type: cell-based
# Conditions: IC50/EC50 bins; NIH3T3 mouse fibroblasts stably expressing ΔF508-CFTR; read-out: Binned EC50
# Excerpt: The optical membrane potential assay utilized voltage-sensitive FRET sensors described by Gonzalez and Tsien (See Gonzalez, J. E. and R. Y. Tsien (1995) “Voltage sensing by fluorescence resonance energy transfer in single cells” Biophys J 69(4): 1272-80, and Gonzalez, J. E. and R. Y. Tsien (1997) “Improved indicators of cell membrane potential that use fluorescence resonance energy transfer” Chem Biol 4(4): 269-77) in combination with instrumentation for measuring fluorescence changes such as the Voltage/Ion Probe Reader (VIPR) (See Gonzalez, J. E., K. Oades, et al. (1999) “Cell-based assays and instrumentation for screening ion-channel targets” Drug Discov Today 4(9): 431-439).
# These voltage sensitive assays are based on the change in fluorescence resonant energy transfer (FRET) between the membrane-soluble, voltage-sensitive dye, DiSBAC2(3), and a fluorescent phospholipid, CC2-DMPE, which is attached to the outer leaflet of the plasma membrane and acts as a FRET donor. Changes in membrane potential (Vm) cause the negatively charged DiSBAC2(3) to redistribute across the plasma membrane and the amount of energy transfer from CC2-DMPE changes accordingly. The changes in fluorescence emission were monitored using VIPR™ II, which is an integrated liquid handler and fluorescent detector designed to conduct cell-based screens in 96- or 384-well microtiter plates.
# To identify small molecules that correct the trafficking defect associated with ΔF508-CFTR; a single-addition HTS assay format was developed. The cells were incubated in serum-free medium for 16 hrs at 37° C. in the presence or absence (negative control) of test compound. As a positive control, cells plated in 384-well plates were incubated for 16 hrs at 27° C. to “temperature-correct” ΔF508-CFTR. The cells were subsequently rinsed 3× with Krebs Ringers solution and loaded with the voltage-sensitive dyes. To activate ΔF508-CFTR, 10 μM forskolin and the CFTR potentiator, genistein (20 μM), were added along with Cl^−-free medium to each well. The addition of Cl^−-free medium promoted Cl^− efflux in response to ΔF508-CFTR activation and the resulting membrane depolarization was optically monitored using the FRET-based voltage-sensor dyes. […]
# 3. Solutions • Bath Solution #1: (in mM) NaCl 160, KCl 4.5, CaCl2 2, MgCl2 1, HEPES 10, pH 7.4 with NaOH. • Chloride-free bath solution: Chloride salts in Bath Solution #1 are substituted with gluconate salts. • CC2-DMPE: Prepared as a 10 mM stock solution in DMSO and stored at −20° C. • DiSBAC2(3): Prepared as a 10 mM stock in DMSO and stored at −20° C.
# NIH3T3 mouse fibroblasts stably expressing ΔF508-CFTR are used for optical measurements of membrane potential. The cells are maintained at 37° C. in 5% CO2 and 90% humidity in Dulbecco's modified Eagle's medium supplemented with 2 mM glutamine, 10% fetal bovine serum, 1×NEAA, β-ME, 1×pen/strep, and 25 mM HEPES in 175 cm^2 culture flasks. For all optical assays, the cells were seeded at 30,000/well in 384-well matrigel-coated plates and cultured for 2 hrs at 37° C. before culturing at 27° C. for 24 hrs for the potentiator assay. For the correction assays, the cells are cultured at 27° C. or 37° C. with and without compounds for 16-24 hours.
# T1 sequence (P13569 with tags, fused parts or gaps DEL508-508): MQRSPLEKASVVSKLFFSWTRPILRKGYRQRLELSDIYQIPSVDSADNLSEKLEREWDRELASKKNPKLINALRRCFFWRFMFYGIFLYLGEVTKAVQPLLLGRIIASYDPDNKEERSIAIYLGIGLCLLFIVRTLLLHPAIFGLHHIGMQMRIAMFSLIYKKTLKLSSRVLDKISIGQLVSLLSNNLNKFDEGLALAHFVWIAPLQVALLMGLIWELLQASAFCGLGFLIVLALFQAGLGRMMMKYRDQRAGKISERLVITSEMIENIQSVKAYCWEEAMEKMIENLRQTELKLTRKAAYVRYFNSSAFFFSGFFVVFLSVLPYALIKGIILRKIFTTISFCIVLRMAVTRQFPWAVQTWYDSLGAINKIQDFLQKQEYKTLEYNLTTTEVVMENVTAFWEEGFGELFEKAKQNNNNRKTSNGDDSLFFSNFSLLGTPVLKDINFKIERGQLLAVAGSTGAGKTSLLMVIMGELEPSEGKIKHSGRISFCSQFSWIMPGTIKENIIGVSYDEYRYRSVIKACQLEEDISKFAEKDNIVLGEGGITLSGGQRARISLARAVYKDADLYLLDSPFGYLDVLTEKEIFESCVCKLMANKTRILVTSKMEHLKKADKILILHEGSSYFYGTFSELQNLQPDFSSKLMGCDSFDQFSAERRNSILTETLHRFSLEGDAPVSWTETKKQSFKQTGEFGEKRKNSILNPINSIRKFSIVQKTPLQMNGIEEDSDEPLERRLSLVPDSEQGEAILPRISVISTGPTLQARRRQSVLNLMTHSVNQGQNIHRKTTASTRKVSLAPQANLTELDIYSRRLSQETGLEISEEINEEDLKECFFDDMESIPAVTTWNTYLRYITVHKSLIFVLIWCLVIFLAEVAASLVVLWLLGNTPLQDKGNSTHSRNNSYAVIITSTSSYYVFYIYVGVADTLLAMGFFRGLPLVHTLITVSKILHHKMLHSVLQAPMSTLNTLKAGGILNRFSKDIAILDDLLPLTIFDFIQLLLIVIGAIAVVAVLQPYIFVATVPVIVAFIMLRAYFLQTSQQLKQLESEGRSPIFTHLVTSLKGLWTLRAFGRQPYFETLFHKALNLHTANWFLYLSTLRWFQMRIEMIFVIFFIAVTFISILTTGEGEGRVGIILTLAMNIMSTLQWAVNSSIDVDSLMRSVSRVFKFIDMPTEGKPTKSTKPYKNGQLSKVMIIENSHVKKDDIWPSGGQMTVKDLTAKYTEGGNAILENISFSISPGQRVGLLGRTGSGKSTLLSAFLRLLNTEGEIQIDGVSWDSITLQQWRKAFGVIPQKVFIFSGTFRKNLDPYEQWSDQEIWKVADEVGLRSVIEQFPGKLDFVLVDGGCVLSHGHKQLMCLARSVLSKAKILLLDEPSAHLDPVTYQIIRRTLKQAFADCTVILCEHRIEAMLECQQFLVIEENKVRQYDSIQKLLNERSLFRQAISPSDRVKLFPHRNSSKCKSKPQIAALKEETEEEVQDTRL
smiles,measurement,value
"O=C(Nc1cc2ccccc2c(-c2ccc(=O)[nH]c2)n1)C1(c2ccc3c(c2)OC(F)(F)O3)CC1 [Compound 17, 1-(2,2-Difluorobenzo[d][1,3]dioxol-5-yl)-N-(1-(6-oxo-1,6-dihydropyridin-3-yl)isoquinolin-3-yl)cyclopropanecarboxamide]",EC50,≤ 2000 nM
